Data reported in patent US6521627B1, “5-Iodo-4-phenethylaminopyrimidine derivative, intermediate thereof, processes for producing the same and agricultural and horticultural pesticides” (UBE Industries, Ltd., priority 1998, dated 2003).

Columns and labels:
diamondback moth = assay: Test of effect on diamondback moth; format: in vivo, diamondback moths (3rd instar larvae); settings: wettable powder diluted to 300 ppm; cabbage leaves dipped for 30 seconds; 25° C., after 2 days
Experimental: (3) Test of effect on diamondback moth The respective wettable powders of Compounds (1) shown in Table 2 prepared as in Example 3 were diluted to 300 ppm with water containing a surfactant (0.01%), and in these respective chemical solutions, cabbage leaves (5×5 cm) were dipped for 30 seconds, and each leaf was put into the respective plastic cups and air-dried. Subsequently, 10 diamondback moths (3rd instar larvae) were placed in the respective cups, and put the lids on them and they were left to stand in a thermostat chamber at 25° C., and after 2 days, insecticidal rate was determined by counting living and dead insects in the respective cups.

brown rice planthopper = assay: Test of effect on brown rice planthopper; format: in vivo, brown rice planthoppers (4th instar larvae); settings: wettable powder diluted to 300 ppm; young seedlings of rice dipped for 30 seconds; 25° C., after 4 days
Experimental: (§1) (4) Test of effect on brown rice planthopper The respective wettable powders of Compounds (1) shown in Table 2 prepared as in Example 3 were diluted to 300 ppm with water containing a surfactant (0.01%), and in these respective chemical solutions, young seedlings of rice were dipped for 30 seconds, and after air-drying, each was put into the respective glass cylinders. Subsequently, 10 brown rice planthoppers (4th instar larvae) were placed in the respective glass cylinders, and porous stoppers were each placed on them and they were left to stand in a thermostat chamber at 25° C., and after 4 days, insecticidal rate was determined by counting living and dead insects in the respective cylinders.

green rice leafhopper = assay: Test of effect on green rice leafhopper; format: in vivo, green rice leafhoppers (4th instar larvae); settings: wettable powder diluted to 300 ppm; young seedlings of rice dipped for 30 seconds; 25° C., after 4 days
Experimental: as §1, with “(5)” for “(4)”, “green” for “brown”, “leafhopper” for “planthopper”, “leafhoppers” for “planthoppers”

[1] = tested on: southern root knot nematodes; assay: Test of effect on southern root knot nematodes; format: in vivo, southern potato root knot nematodes; settings: wettable powder diluted to 300 ppm, 0.1 ml plus 0.9 ml solution containing 500 nematodes; 25° C., after 2 days
Experimental: (1) Test of effect on southern root knot nematodes The respective wettable powders of Compounds (1) shown in Table 2 prepared as in Example 3 were diluted to 300 ppm with water, 0.1 ml of which is taken into the test tubes, and 0.9 ml of a solution containing 500 southern potato root knot nematodes was added thereto, respectively. Subsequently, these test tubes were left to stand in a thermostat chamber at 25° C., and after 2 days, nematodecidal rate was determined by observing with microscope.

tobacco cutworm = assay: Test of effect on tobacco cutworm; format: in vivo, tobacco cutworm (2nd instar larvae); settings: wettable powder diluted to 500 ppm; soybean leaves dipped for 30 seconds; 25° C., after 2 days
Experimental: (6) Test of effect on tobacco cutworm The respective wettable powders of Compounds (1) shown in Table 2 prepared as in Example 3 were diluted to 500 ppm with water containing a surfactant (0.01%), and in these respective chemical solutions, leave of soybean were dipped for 30 seconds. After air-drying, each of the leave was put into the respective plastic cups, 10 tobacco cutworm (2nd instar larvae) were placed in the respective cups, and put the lids on them and they were left to stand in a thermostat chamber at 25° C. After 2 days, insecticidal rate was determined by counting living and dead insects in the respective cups.

Row | Structure (SMILES) | insecticidal effect (insecticidal rate) (diamondback moth) [%] | melting point [°C] | insecticidal effect (insecticidal rate) (brown rice planthopper) [%] | insecticidal effect (insecticidal rate) (green rice leafhopper) [%] | nematodecidal effect (nematodecidal rate) [1] [%] | insecticidal effect (insecticidal rate) (tobacco cutworm) [%]
1 | CC(=O)OC(C)c1ncnc(NCCc2ccccc2)c1I (stereo not drawn) [Compound 1-(3), 6-(l-acetoxyethyl)-5-iodo-4-(2-phenylethylamino)pyrimidine] | 100 | – | – | – | – | –
2 | CC(Cl)c1ncnc(NCCc2ccccc2)c1I (centres unmarked) [Compound 1-(2), 6-(1-chloroethyl)-5-iodo-4-(2-phenylethylamino)pyrimidine] | – | 101 to 102 | – | – | – | –
3 | CC(F)c1ncnc(NCCc2ccccc2)c1I (centres unmarked) [Compound 1-(1), 6-(1-fluoroethyl)-5-iodo-4-(2-phenylethylamino)pyrimidine] | 100 | – | 100 | 100 | 100 | –
4 | CC(F)c1ncnc(NCCc2ccc(F)cc2)c1I (centres unmarked) [Compound 1-(5), 6-(1-fluoroethyl)-5-iodo-4-[2-(4-fluorophenyl)ethylamino]pyrimidine] | 100 | – | 100 | 100 | 100 | 100
5 | CC(F)c1ncnc(NCCc2ccc(OC(F)(F)F)cc2)c1I (centres unmarked) [1-(23), 6-(1-fluoroethyl)-5-iodo-4-[2-(4-trifluoromethoxyphenyl)ethylamino]pyrimidine] | 100 | – | 100 | 100 | 100 | 100
6 | CC(=O)OC(C)c1ncnc(NCCc2ccc(OC(F)(F)F)cc2)c1I (centres unmarked) [1-(21), 6-(1-acetoxyethyl)-5-iodo-4-[2-(4-trifluoromethoxyphenyl)ethylamino]pyrimidine] | – | 77 to 79 | – | – | – | –
